Experiment: Emulsifying properties: hexane/water emulsions
Type: physicochemical
Settings: for emulsifying properties on addition of salt: addition of 0.2% calcium chloride or magnesium chloride, mixture of isomers; for stability of emulsions of water in hexane: aqueous solutions of the mixture of isomers
Text: […] The emulsifying properties of compounds (12a) and (12b) were not disrupted by the addition of 0.2% calcium chloride or magnesium chloride.

Row | SMILES | emulsifying properties on addition of salt | stability of emulsions of water in hexane
1 | CCCCCCCCC(O)COCC(O)CO (stereo not drawn) [Compound 12a] | not disrupted | –
2 | CCCCCCCCC(CO)OCC(O)CO (stereo not drawn) [Compound 12b] | not disrupted | –
3 | CCCCCCCCCCCCCCCCC(O)COCC(O)CO (stereo not drawn) [Compound 13a] | not substantially disrupted | able to support stability of emulsions of water in hexane
4 | CCCCCCCCCCCCCCCCC(CO)OCC(O)CO (stereo not drawn) [Compound 13b] | not substantially disrupted | able to support stability of emulsions of water in hexane

From US8026378B2, “Glyceryl ether compounds and their use” (Segetis, Inc., priority 2005, dated 2011)
